The test deals with THP-1 cells. Kind of test: THP-1 Soluble Protein Assay (LPS-stimulated; ELISA of TNF-a, TNF-R p75/80, TNF-R p55/60, IL-8). The test is classed as cell-based, human. The settings on record: Homo sapiens.
Where [1] appears, read: THP-1, 3 µM, read-out: THP % Inhibition @ 3µM.
Where [2] appears, read: THP-1, read-out: THP % inhibition @ 3 µM, 3 µM.

Structures can show the parent of a compound that is named as a salt. Where two headings read alike, the source gives them in different places.

34 compounds from patent EP1144368B1, “ACETYLENIC ALPHA-AMINO ACID-BASED SULFONAMIDE HYDROXAMIC ACID TACE INHIBITORS” (priority 1999, dated 2000) can be followed below.

`CC#CCOc1ccc(S(=O)(=O)N2C[C@H](CC(=O)O)SC(C)(C)[C@@H]2C(=O)NO)cc1` [Example 278, {(2S,5S)-4-{[4-(2-Butynyloxy)phenyl]sulfonyl}-5-[(hydroxyamino)carbonyl]-6,6-dimethylthiomorpholinyl}acetic acid]: the inhibition (as a rule, the share of the control response that was lost under treatment) at 3 µM under setting [1] came out at 89%.
On to `CN(CC#CCOc1ccc(S(=O)(=O)N2CCSC(C)(C)C2C(=O)NO)cc1)C(=O)OC(C)(C)C` (stereo not shown) [Example 267, tert-butyl 4-[4-({3-[(hydroxyamino)carbonyl]-2,2-dimethyl-4-thiomorpholinyl}sulfonyl)phenoxy]-2-butynyl(methyl)carbamate], for which the inhibition at 3 µM under setting [2] amounted to 15%.
Still for that read-out and setting: the figure for `CC#CCOc1ccc(S(=O)(=O)N2CCN(C(=O)Nc3cc(Cl)cc(Cl)c3)CC2C(=O)NO)cc1` (stereo not shown) [Example 223, 4-{[4-(2-Butynyloxy)phenyl]sulfonyl}-N-1-(3,5-dichlorophenyl)-N-3-hydroxy-1,3-piperazinedicarboxamide] is 42%.
As for `CC1(C)SCCN(S(=O)(=O)c2ccc(OCC#CCO)cc2)C1C(=O)NO` (stereo not shown) [Example 61, 4-[4-(4-Hydroxy-but-2-ynyloxy)-benzenesulfonyl]-2,2-dimethyl-thiomorpholine-3-carboxylic acid hydroxyamide], the inhibition at 3 µM (THP-1, read-out: THP % inhibition @ 3 µM) came to 89%.
On to `CC#CCOc1ccc(S(=O)(=O)N(C)C(C(=O)NO)c2ccc(OCCN(C)C)cc2)cc1` (stereo not shown) [Example 182, 2-[{[4-(2-Butynyloxy)phenyl]sulfonyl}(methyl)amino]-2-{4-[2-(dimethylamino)ethoxy]phenyl}-N-hydroxyacetamide], for which, under setting [2], the inhibition at 3 µM came out at 92%.
On the same count and under the same terms, the figure for `CC#CCOc1ccc(S(=O)(=O)NC(C(=O)NO)c2ccc(OCCOCCOCCOC)cc2)cc1` (stereo not shown) [Example 209, 2-({[4-(2-Butynyloxy)phenyl]sulfonyl}amino)-N-hydroxy-2-(4-{2-[2-(2-methoxyethoxy)ethoxy]ethoxy}phenyl)acetamide] is 75%.
The same measure, in the same setting: the figure for `CC1(C)SCCN(S(=O)(=O)c2ccc(OCC#CCCCCN)cc2)[C@H]1C(=O)NO` [Example 253, (3S)-4-({4-[(7-Amino-2-heptynyl)oxy]phenyl}sulfonyl)-N-hydroxy-2,2-dimethyl-3-thiomorpholine carboxamide] is 37%; for `CC#CCOc1ccc(S(=O)(=O)N2CCSCC2C(=O)NO)cc1` (stereo not shown) [Example 239] it is 84%.
Same read-out and setting: to `CC#CCOc1ccc(S(=O)(=O)N(Cc2cccnc2)[C@@H](C(=O)NO)C2CCCCC2)cc1` [Example 116, 2-[(4-But-2-ynyloay-benzenesulfonyl)-pyridin-3-ylmethyl-amino]-2-cyclohexyl-N-hydroxy-acetamide] belongs 75%; to `CC#CCOc1ccc(S(=O)(=O)N2CCN(C(=O)C(C)(CO)CO)CC2C(=O)NO)cc1` (stereo not shown) [Example 232, 1-{[4-(2-Butynyloxy)phenyl]sulfonyl}-N-hydroxy-4-[3-hydroxy-2-(hydroxymethyl)-2-methylpropanoyl]-2-piperazinecarboxamide], 72%; to `CC#CCOc1ccc(S(=O)(=O)N(CCCN(CC)CC)C(C(=O)NO)C(C)C)cc1` (stereo not shown) [Example 118, 2-{{[4-(2-Butynyloxy)phenyl]sulfonyl}[3-(diethylamino)propyl]amino}-N-hydroxy-3-methylbutanamide], 77%.
For the compound `CC#CCOc1ccc(S(=O)(=O)N2C[C@H](CC(N)=O)SC(C)(C)[C@@H]2C(=O)NO)cc1` [Example 280, (3S,6S)-6-(2-Amino-2-oxoethyl)-4-{[4-(2-butynyloxy)phenyl]sulfonyl}-N-hydroxy-2,2-dimethyl-3-thiomorpholinecarboxamide], the inhibition at 3 µM under setting [1] turned out to be 91%.
Consider `CC#CCOc1ccc(S(=O)(=O)N2CCSC3(CCN(C)CC3)C2C(=O)NO)cc1` (stereo not shown) [Example 242, 9-methyl-4-{[4-(2-butynyloxy)phenyl]sulfonyl}-N-hydroxy-1-thia-4,9-diazaspiro[5.5]undecane-5-carboxamide], for which the inhibition at 3 µM under setting [2] turned out to be 73%.
Still for that read-out and setting: the figure for `CC#CCOc1ccc(S(=O)(=O)N(C)C(C(=O)NO)C(C)(C)SCCCN2CCOCC2)cc1` (stereo not shown) [Example 146] is 84%; for `CC(C)(C)OC(=O)NCCC#CCOc1ccc(S(=O)(=O)N2CCSC(C)(C)C2C(=O)NO)cc1` (stereo not shown) [Example 245, tert-Butyl 5-[4-({3-[(hydroxyamino)carbonyl]-2,2-dimethyl-4-thiomorpholinyl}sulfonyl)phenoxy]-3-pentynylcarbamate] it is 37%.
`CC#CCOc1ccc(S(=O)(=O)N(C)C(C(=O)NO)c2ccc(OCCN3CCOCC3)cc2)cc1` (stereo not shown) [Example 179, 2-[{[4-(2-Butynyloxy)phenyl]sulfonyl}(methyl)amino]-N-hydroxy-2-{4-[2-(4-morpholinyl)ethoxy]phenyl}acetamide]: the inhibition at 3 µM under setting [2] came out at 97%.
On the same count and under the same terms, to `CC#CCOc1ccc(S(=O)(=O)N(Cc2cccnc2)C(C)C(=O)NO)cc1` (stereo not shown) [Example 33, 2-[(4-But-2-ynyloxy-benzenesulfonyl)-pyridin-3-ylmethyl-amino]-N-hydroxy-propionamide hydrochloride] belongs 80%.
The same measure, in the same setting: to `CC#CCOc1ccc(S(=O)(=O)N(C)C(C(=O)NO)c2ccc(OCCNC)cc2)cc1` (stereo not shown) [Example 192, 2-({[4-(2-Butynyloxy)phenyl]sulfonyl}(methyl)amino)-N-hydroxy-2-{4-[2-(methylamino)ethoxy]phenyl}acetamide] belongs 95%; to `CC(=O)OCCCCC#CCOc1ccc(S(=O)(=O)N2CCSC(C)(C)[C@@H]2C(=O)NO)cc1` [Example 268, 7-[4-({(3S)-3-[(Hydroxyamino)carbonyl]-2,2-dimethylthiomorpholinyl}sulfonyl)phenoxy]-5-heptynyl acetate], 76%; to `CC(C)(C)OC(=O)NCC#CCOc1ccc(S(=O)(=O)N2CCSC(C)(C)C2C(=O)NO)cc1` (stereo not shown) [Example 266, tert-Butyl 4-[4-({3-[(hydroxyamino)carbonyl]-2,2-dimethyl-4-thiomorpholinyl}sulfonyl)phenoxy]-2-butynylcarbamate], 79%.
Still for that read-out and setting: the figure for `CC1(C)SCCN(S(=O)(=O)c2ccc(OCC#CCCCOC3CCCCO3)cc2)C1C(=O)NO` (stereo not shown) [Example 248, N-Hydroxy-2,2-dimethyl-4-[(4-{[6-(tetrahydro-2H-pyran-2-yloxy)-2-hexynyl]oxy}phenyl)sulfonyl]-3-thiomorpholine carboxamide] is 21%; for `CC#CCOc1ccc(S(=O)(=O)N2CCN(C(C)=O)CC2C(=O)NO)cc1` (stereo not shown) [Example 224, 4-Acetyl-1-(4-but-2-ynyloxy-benzenesulfonyl)-piperazine-2-carboxylic acid hydroxyamide] it is 81%; for `CC#CCOc1ccc(S(=O)(=O)N(C)C(C(=O)NO)C(C)(C)SCCN(CC)CC)cc1` (stereo not shown) [Example 142, 2-({[4-(2-Butynyloxy)phenyl]sulfonyl)(methyl)amino]-N-hydroxy-3 methyl-3-{[2-(diethylamino)ethyl]sulfanyl}butanamide] it is 89%.
In the case of `CC#CCOc1ccc(S(=O)(=O)N(C)C(C(=O)NO)c2ccc(OCCN(C)C(=O)OC(C)(C)C)cc2)cc1` (stereo not shown) [Example 191], under setting [2], the inhibition at 3 µM was 90%.
On the same count and under the same terms, the figure for `CC#CCOc1ccc(S(=O)(=O)N(C)C(C(=O)NO)c2ccc(OCCN)cc2)cc1` (stereo not shown) [Example 181, 2-[4-(2-Aminoethoxy)phenyl]-2-[{[4-(2-butynyloxy)phenyl]sulfonyl}(methyl)amino]-N-hydroxyacetamide] is 92%.
Still for that read-out and setting: the figure for `CC#CCOc1ccc(S(=O)(=O)N2CCN(C(=O)N(C)c3ccccc3)CC2C(=O)NO)cc1` (stereo not shown) [Example 220, 4-(4-But-2-ynyloxy-benzenesulfonyl)-piperazine-1,3-dicarboxylic acid 3-hydroxyamide 1-(methyl-phenyl-amide)] is 60%.
On the same count and under the same terms, the figure for `CC#CCOc1ccc(S(=O)(=O)N(C)C(C(=O)NO)c2ccc(Cl)cc2)cc1` (stereo not shown) [Example 212, 2-[{[4-(2-Butynyloxy)phenyl]sulfonyl}(methyl)amino]-2-(4-chlorophenyl)-N-hydroxyacetamide] is 86%; for `CC(C)(C)OC(=O)NCCCCC#CCOc1ccc(S(=O)(=O)N2CCSC(C)(C)[C@@H]2C(=O)NO)cc1` [Example 252, tert-Butyl 7-[4-({(3S)-3-[(hydroxyamino)carbonyl]-2,2-dimethylthiomorpholinyl}sulfonyl)phenoxy]-5-heptynylcarbamate] it is 70%; for `CC#CCOc1ccc(S(=O)(=O)N2CCN(C(=O)N(C(C)C)C(C)C)CC2C(=O)NO)cc1` (stereo not shown) [Example 218, 4-(4-But-2-ynyloxy-benzenesulfonyl)-piperazine-1,3-dicarboxylic acid 1-diisopropylamide 3-hydroxyamide] it is 56%.
On to `CC#CCOc1ccc(S(=O)(=O)N(C)C(C(=O)NO)C(C)C)cc1` (stereo not shown) [Example 9, 2-[(4-But-2-ynyloxy-benzenesulfonyl)-methyl-amino]-N-hydroxy-3-methyl-butyramide], for which the inhibition at 3 µM under setting [2] came out at 94%.
On the same count and under the same terms, the figure for `CC#CCOc1ccc(S(=O)(=O)N(CCC)C(C(=O)NO)C(C)C)cc1` (stereo not shown) [Example 110, 2-[(4-But-2-ynyloxy-benzenesulfonyl)-propyl-amino]-N-hydroxy-3-methyl-butyramide] is 47%.
Turning to `CC#CCOc1ccc(S(=O)(=O)N2C=CSC(C)(C)[C@@H]2C(=O)NO)cc1` [Example 379, (3S)-4-{[4-(2-Butynyloxy)phenyl]sulfonyl}-N-hydroxy-2,2-dimethyl-3,4-dihydro-2H-1,4-thiazine-3-carboxamide], the inhibition at 3 µM under setting [1] came out at 85%.
`C#CC#CCOc1ccc(S(=O)(=O)N2CCSC(C)(C)[C@@H]2C(=O)NO)cc1` [Example 263, (3S)-N-Hydroxy-2,2-dimethyl-4-{[4-(2,4-pentadiynyloxy)phenyl]sulfonyl}-3-thiomorpholine carboxamide]: the inhibition at 3 µM under setting [2] was 88%.
Regarding `CC#CCOc1ccc(S(=O)(=O)N(C)[C@@H](C(=O)NO)C2CCC(N(CC)CC)CC2)cc1` (stereo partly drawn) [Example 128, ((2R)-{[4-(2-Butynyloxy)phenyl]sulfonyl}(methyl)amino)[(4-diethylamino)cyclohexyl]-N-hydroxyethamide], under setting [2], the inhibition at 3 µM is 51%.
